This note sets out measurements from US9890185B2, “Urea derivatives useful as kinase inhibitors” (Respivert Limited, priority 2013, dated 2018).

The subject of assay [1] is PBMCs. Briefly: IFN gamma release in CD3/CD28 stimulated PBMC cells (assay c). It counts as cell-based. The settings on record: Homo sapiens, read-out: IC50 Values for Inhibition of Cytokine Release, PBMCs IFNγ. In outline:
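Compound added to human PBMCs on anti-CD3/anti-CD28-coated wells (0.3 and 3 μg/mL respectively); 3-day culture. Sandwich ELISA of supernatant IL-2 or IFN gamma gives the read-out, with IC50 derived from the dose-response curve.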

Assay [2] concerns PBMCs. Briefly: LPS-induced IL-8 release in PBMC cells (assay b). The settings on record: Homo sapiens, PBMC; LPS-stimulated PBMCs; read-out: IC50 Values for Inhibition of Cytokine Release, PBMCs IL-8. The format is cell-based, human. In outline: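 Human PBMCs from healthy donors, isolated by density gradient, were pretreated with compound for 2 h and then stimulated with 1 ng/mL LPS (E. coli 0111:B4) for 24 h at 37° C, 5% CO2. Supernatant IL-8 and TNFα were measured by sandwich ELISA, and IC50 was taken from the dose-response curve.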

The target of assay [3] is p38 MAPKα isoform (MAPK14) (Homo sapiens (Human), UniProt Q16539). Briefly: p38 MAPKα enzyme inhibition (FRET, Z-LYTE, Method 2). It counts as biochemical. Summed up: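 Z-LYTE FRET: p38 MAPKα (80 ng/mL for Method 1, 200 ng/mL for Method 2, pre-dilution) preincubated 2 hr RT with compound (4–0.004 μg/mL solutions), activity read via MAPKAP-K2 phosphorylation after 1 hr RT and 1 hr protease development. Coumarin/fluorescein ratio gives phosphorylation; % inhibition versus uninhibited control, IC50 from concentration-response curve.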

For a further assay, the system named is HT29 cells. Briefly: IL-1β-induced IL-8 release in HT29 cells (assay d). The settings on record: Homo sapiens, HT-29; IL-1β-stimulated HT29 cells; read-out: IC50 Values for Inhibition of Cytokine Release, HT29 cells IL-8. The format is cell-based. As for the experimental part: HT29 cells, a human colon adenocarcinoma cell line, are plated in a 96 well plate (24 hrs) and pre-treated with compounds at the desired concentration for 2 hours before addition of 5 ng/mL of IL-1β (Abcam) for 24 hours. Supernatants are harvested for IL-8 quantification by Sandwich ELISA (Duo-set, R&D System). The IC50 is determined from the dose response curve.

p38 MAPKα isoform (MAPK14), sequence (Q16539 whole entry, canonical isoform): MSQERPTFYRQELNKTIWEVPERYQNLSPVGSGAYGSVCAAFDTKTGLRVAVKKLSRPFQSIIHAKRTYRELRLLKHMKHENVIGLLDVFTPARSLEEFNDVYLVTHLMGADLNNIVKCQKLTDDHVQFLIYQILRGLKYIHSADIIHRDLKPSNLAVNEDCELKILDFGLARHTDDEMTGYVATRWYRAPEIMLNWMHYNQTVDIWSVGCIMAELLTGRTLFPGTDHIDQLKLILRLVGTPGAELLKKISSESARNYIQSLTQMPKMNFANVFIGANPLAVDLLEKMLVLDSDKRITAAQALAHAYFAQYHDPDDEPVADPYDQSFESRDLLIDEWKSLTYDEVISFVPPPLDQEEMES

Consider `COCCOCCOCCOc1cc(Nc2cc(Oc3ccc(NC(=O)Nc4cc(C(C)(C)C)cc([S+](C)[O-])c4OC)c4ccccc34)ccn2)cc(OC)c1` (centres unmarked) [Example 17, 1-(5-(tert-Butyl)-2-methoxy-3-(methylsulfinyl)phenyl)-3-(4-((2-((3-methoxy-5-(2-(2-(2-methoxyethoxy)ethoxy)ethoxy)phenyl)amino)pyridin-4-yl)oxy)naphthalen-1-yl)urea], for which the IC50 in the assay with PBMCs [1] was found to be 4.9 nM; with PBMCs [2] it was 0.9 nM; in assay [3], 68 nM; in the assay on HT29 cells, 2 nM.

As for `COCCOCCOCCOc1cc(Nc2cc(Oc3ccc(NC(=O)Nc4cc(C(C)(C)C)cc(C(=O)NCCN5CCOCC5)c4OC)c4ccccc34)ccn2)cc(OC)c1` [Example 16, 5-(tert-Butyl)-2-methoxy-3-(3-(4-((2-((3-methoxy-5-(2-(2-(2-methoxyethoxy)ethoxy)ethoxy)-phenyl)amino)pyridin-4-yl)oxy)naphthalen-1-yl)ureido)-N-(2-morpholinoethyl)benzamide], the IC50 in the assay on PBMCs [1] amounted to 4.3 nM; in the assay with PBMCs [2] it was 1.7 nM; in assay [3], 230 nM; in the assay on HT29 cells, 1.5 nM.

With `COc1cc(Nc2cc(Oc3ccc(NC(=O)Nc4cc(C(C)(C)C)cc(CNC(C)=O)c4OC)c4ccccc34)ccn2)cc(OC)c1` [Example 44, N-(5-(tert-Butyl)-3-(3-(4-((2-((3,5-dimethoxyphenyl)amino)pyridin-4-yl)oxy)naphthalen-1-yl)ureido)-2-methoxybenzyl)acetamide], the IC50 is 2.3 nM with PBMCs [1], 1.3 nM with PBMCs [2], 175 nM in assay [3] and 5.2 nM in the assay with HT29 cells.

With `COc1cccc(Nc2cc(Oc3ccc(NC(=O)Nc4cc(C(C)(C)C)cc([S+](C)[O-])c4OC)c4ccccc34)ccn2)c1` (centres unmarked) [Example 41, 1-(5-(tert-Butyl)-2-methoxy-3-(methylsulfinyl)phenyl)-3-(4-((2-((3-methoxyphenyl)amino)pyridin-4-yl)oxy)naphthalen-1-yl)urea], the IC50 in the assay on PBMCs [1] worked out at 6.9 nM; in the assay with PBMCs [2], 2.9 nM; in assay [3] it was 179 nM; in the assay with HT29 cells, 2.2 nM.

As for `COCCOCCOCCOc1cc(Nc2cc(Oc3ccc(NC(=O)Nc4cc(C(C)(C)C)cc(CS(C)(=O)=O)c4OC)c4ccccc34)ccn2)cc(OC)c1` [15(a), 1-(5-(tert-butyl)-2-methoxy-3-((methylsulfonyl)methyl)phenyl)-3-(4-((2-((3-methoxy-5-(2-(2-(2-methoxyethoxy)ethoxy)ethoxy)phenyl)amino)pyridin-4-yl)oxy)naphthalen-1-yl)urea], the IC50 amounted to 27.2 nM with PBMCs [1], 3.6 nM with PBMCs [2], 177 nM in assay [3] and 4.2 nM in the assay on HT29 cells.

As for `COCCOCCOCCOc1cc(Nc2cc(Oc3ccc(NC(=O)Nc4cc(C(C)(C)C)cc(P(C)(C)=O)c4)c4ccccc34)ccn2)cc(OC)c1` [Example 10, 1-(3-(tert-Butyl)-5-(dimethylphosphoryl)phenyl)-3-(4-((2-((3-methoxy-5-(2-(2-(2-methoxy-ethoxy)ethoxy)ethoxy)phenyl)amino)pyridin-4-yl)oxy)naphthalen-1-yl)urea], the IC50 came to 31.3 nM with PBMCs [1], 2 nM with PBMCs [2], 45 nM in assay [3] and 8.2 nM in the assay with HT29 cells.

For the compound `COc1c(NC(=O)Nc2ccc(Oc3ccnc(Nc4ccccc4)c3)c3ccccc23)cc(C(C)(C)C)cc1P(C)(C)=O` [Example 11, 1-(5-(tert-Butyl)-3-(dimethylphosphoryl)-2-methoxyphenyl)-3-(4-((2-(phenylamino)pyridin-4-yl)oxy)naphthalen-1-yl)urea], the IC50 with PBMCs [1] came out at 10.5 nM; with PBMCs [2], 2.3 nM; in assay [3], 141 nM; in the assay with HT29 cells, 15.8 nM.

For the compound `COc1cc(Nc2cc(Oc3ccc(NC(=O)Nc4cc(C(C)(C)C)cc([S+](C)[O-])c4OC)c4ccccc34)ccn2)cc(OC)c1` (centres unmarked) [Example 40, 1-(5-(tert-Butyl)-2-methoxy-3-(methylsulfinyl)phenyl)-3-(4-((2-((3,5-dimethoxyphenyl)amino)pyridin-4-yl)oxy)naphthalen-1-yl)urea], the IC50 in the assay with PBMCs [1] stood at 5.2 nM; with PBMCs [2], 2.7 nM; in assay [3], 302 nM; with HT29 cells, 3 nM.

With `C#Cc1cc(Nc2cc(Oc3ccc(NC(=O)Nc4cc(C(C)(C)C)cc(P(C)(C)=O)c4OC)c4ccccc34)ccn2)cc(C(=O)NCCOCCOCCOC)c1` [Example 3, 3-((4-((4-(3-(5-(tert-Butyl)-3-(dimethylphosphoryl)-2-methoxyphenyl)ureido)naphthalen-1-yl)oxy)pyridin-2-yl)amino)-5-ethynyl-N-(2-(2-(2-methoxyethoxy)ethoxy)ethyl)benzamide], the IC50 came out at 18.4 nM in the assay on PBMCs [1], 2.8 nM in the assay on PBMCs [2], 91 nM in assay [3] and 14.5 nM in the assay on HT29 cells.

Take `COc1cccc(Nc2cc(Oc3ccc(NC(=O)Nc4cc(C(C)(C)C)cc(CNC(C)=O)c4OC)c4ccccc34)ccn2)c1` [Example 43, N-(5-(tert-Butyl)-2-methoxy-3-(3-(4-((2-((3-methoxyphenyl)amino)pyridin-4-yl)oxy)naphthalen-1-yl)ureido)benzyl)acetamide]: the IC50 is 2.8 nM in the assay with PBMCs [1], 1.4 nM in the assay with PBMCs [2], 129 nM in assay [3] and 3.7 nM in the assay on HT29 cells.

As to `COc1cc(Nc2nccc(Oc3ccc(NC(=O)Nc4cc(C(C)(C)C)cc(OCP(C)(C)=O)c4OC)c4ccccc34)n2)cc(OC)c1` [Example 20, 1-(5-(tert-Butyl)-3-((dimethylphosphoryl)methoxy)-2-methoxyphenyl)-3-(4-((2-((3,5-dimethoxyphenyl)amino)pyrimidin-4-yl)oxy)naphthalen-1-yl)urea], the IC50 came to 7.9 nM with PBMCs [1], 2.5 nM with PBMCs [2], 368 nM in assay [3] and 3.3 nM with HT29 cells.

Regarding `COc1c(CC(N)=O)cc(C(C)(C)C)cc1NC(=O)Nc1ccc(Oc2ccnc(Nc3cc(C)cc(C)c3)c2)c2ccccc12` [38(f), 2-(5-(tert-Butyl)-3-(3-(4-((2-((3,5-dimethylphenyl)amino)pyridin-4-yl)oxy)naphthalen-1-yl)ureido)-2-methoxyphenyl)acetamide], the IC50 in the assay on PBMCs [1] came out at 16.5 nM; in the assay with PBMCs [2], 5.5 nM; in assay [3], 226 nM; in the assay on HT29 cells it was 4.8 nM.

Turning to `COc1c(CC(N)=O)cc(C(C)(C)C)cc1NC(=O)Nc1ccc(Oc2ccnc(Nc3ccn(C)n3)c2)c2ccccc12` [38(o), 2-(5-(tert-Butyl)-2-methoxy-3-(3-(4-((2-((1-methyl-1H-pyrazol-3-yl)amino)pyridin-4-yl)oxy)naphthalen-1-yl)ureido)phenyl)acetamide], the results for the IC50 (with PBMCs [1]; in the assay with PBMCs [2]; in assay [3]) were 7.8 nM, 1.3 nM and 9 nM, respectively.

As to `COCCOCCOCCOc1cc(Nc2nccc(Oc3ccc(NC(=O)Nc4cc(C(C)(C)C)cc(OCP(C)(C)=O)c4OC)c4ccccc34)n2)cc(OC)c1` [Example 6, 1-(5-(tert-Butyl)-3-((dimethylphosphoryl)methoxy)-2-methoxyphenyl)-3-(4-((2-((3-methoxy-5-(2-(2-(2-methoxyethoxy)ethoxy)ethoxy)phenyl)amino)pyrimidin-4-yl)oxy)naphthalen-1-yl)urea], the IC50 with PBMCs [1] was determined as 15.5 nM; in the assay with PBMCs [2] it was 1.9 nM; in assay [3] it was 211 nM; in the assay on HT29 cells it was 5.3 nM.

In the case of `COCCOCCOCCOc1cc(Nc2cc(Oc3ccc(NC(=O)Nc4cc(C(C)(C)C)cc(P(C)(C)=O)c4OC)c4ccccc34)ccn2)cc(OC)c1` [Example 2, 1-(5-(tert-Butyl)-3-(dimethylphosphoryl)-2-methoxyphenyl)-3-(4-((2-((3-methoxy-5-(2-(2-(2-methoxyethoxy)ethoxy)ethoxy)phenyl)amino)pyridin-4-yl)oxy)naphthalen-1-yl)urea], the IC50 was determined as 2.9 nM with PBMCs [1], 1 nM in the assay on PBMCs [2], 51 nM in assay [3] and 1.7 nM in the assay with HT29 cells.

As for `COCCOCCOCCNC(=O)c1cc(Nc2cc(Oc3ccc(NC(=O)Nc4cc(C(C)(C)C)cc(CNC(=O)CN(C)C)c4OC)c4ccccc34)ccn2)cc(OC)c1` [Example 77, 3-((4-((4-(3-(5-(tert-Butyl)-3-((2-(dimethylamino)acetamido)methyl)-2-methoxyphenyl)ureido)naphthalen-1-yl)oxy)pyridin-2-yl)amino)-5-methoxy-N-(2-(2-(2-methoxyethoxy)ethoxy)ethyl)benzamide], the IC50 came to 2.3 nM with PBMCs [1], 0.9 nM with PBMCs [2] and 20 nM in assay [3].

As for `CNC(=O)Cc1cc(C(C)(C)C)cc(NC(=O)Nc2ccc(Oc3ccnc(Nc4cccc(OC)c4)c3)c3ccccc23)c1OC` [38(h), 2-(5-(tert-Butyl)-2-methoxy-3-(3-(4-((2-((3-methoxyphenyl)amino)pyridin-4-yl)oxy)naphthalen-1-yl)ureido)phenyl)-N-methylacetamide], the results for the IC50 (in the assay with PBMCs [1]; in the assay with PBMCs [2]; in assay [3]) were 17.7 nM, 2.7 nM and 123 nM, respectively.
